According to patent US20030119812A1, “Method for decreasing capillary permeability in the retina” (priority 2001, published 2003):

Test system: BRB breakdown in mice exposed to vascular endothelial growth factor (VEGF)
Assay: BRB breakdown quantitated with [3H]-mannitol tracer in mice given intravitreal VEGF
Assay type: in vivo, C57B/J6 mice
Excerpt: Intraperitoneally administered radiolabeled tracer can be used to quantitate BRB breakdown in mice exposed to vascular endothelial growth factor (VEGF). This technique is particularly advantageous with neonatal mice because of the technical difficulty involved with intravascular injections. Also, the comparison of retinas from injected and control eyes to tissues without a blood-tissue barrier corrects for variations in the amount of isotope injected or absorbed into the circulation.
Ten six- to seven-week-old C57B/J6 mice (Jackson Labs, Bar Harbor, Me.) are weighed to determine the proper dosage of anesthesia and tracer required. Mice are anesthetized with a solution containing 25 mg/kg ketamine (Ketaset; Fort Dodge Animal Health, Fort Dodge, Iowa) and 4 mg/kg rompun (Tranquived; Vedco, St. Joseph, Mo.) diluted 1:10 in saline prior to injection. Five mice are subjected to gavage with 50 mg/kg N-benzoyl staurosporine for three days prior to intravitreal administration of VEGF; the other five mice are subjected to gavage with vehicle.
Tropicamide (1%) is used to dilate the pupils of anesthetized mice. Under a dissecting microscope, a Harvard injector (PLI 100) is used with a glass pipet pulled to a diameter of 13-20 μm to inject 1 μl of saline containing VEGF (R&D Systems, Minneapolis, Minn.). The eyes are entered posterior to the limbus, directing the pipet toward the optic nerve. The solution is then deposited just in front of the retina without inflicting any damage to the lens. […]
One ml NCSII (Amersham, Chicago, Ill.) solubilizing solution is added to each vial and the vials are incubated overnight in a 50° C. water bath. […] The specimens are counted on a Wallac 1409 Liquid Scintillation Counter (Gaithersburg, :Md.).
The counts per mg tissue are determined for treated (with N-benzoyl staurosporine) and untreated retina, lung, and kidney. Ratios of these values for treated or untreated retina/lung or kidney and for lung/kidney are calculated. […]

**Q.** For `CO[C@@H]1[C@H](N(C)C(=O)c2ccccc2)C[C@H]2O[C@]1(C)n1c3ccccc3c3c4c(c5c6ccccc6n2c5c31)C(=O)NC4` [N-benzoyl staurosporine], which “radioactivity in the retinas (leakage of radioactive tracer out of the retinal blood vessels)” value (50 mg/kg N-benzoyl staurosporine by gavage versus vehicle gavage, before intravitreal VEGF) is on record?
**A.** The value was “significantly less radioactivity”.

**Q.** What about the retina/kidney ratio (50 mg/kg by gavage for three days before intravitreal VEGF 10^-6 M, [3H]-mannitol at 6 hours, VEGF/vehicle 0.6806±0.1060, Student-t value 0.0201) of the same compound?
**A.** Its retina/kidney ratio is 0.3881±0.0436.

**Q.** What about the “retina/lung ratio (cpm per mg of retina/cpm per mg of lung)” value (50 mg/kg by gavage for three days before intravitreal VEGF 10^-6 M, [3H]-mannitol at 6 hours, VEGF/vehicle 0.8785±0.0946, Student-t value 0.0467) of the same compound?
**A.** The value was 0.6326±0.0656.
